Experimental data taken from patent US20260262643A1, “HERBICIDAL BENZOXAZINES” (FMC CORPORATION, priority 2022, published 2026).

What was measured:
barnyardgrass [1] = assay: Test C preemergence; assay type: in vivo, Echinochloa crusgalli
Method in brief: (§1)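 Greenhouse herbicide screen, 10-day duration. Test chemicals in solvent/surfactant blend were sprayed onto soil at sowing (pre) or onto 2–10 cm seedlings at one to two leaves (post); injury scored visually against controls, 0 no effect to 100 complete control.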

blackgrass [2] = assay: Test C preemergence; assay type: in vivo, Alopecurus myosuroides
Method in brief: as §1

corn [3] = assay: Test C preemergence; assay type: in vivo, Zea mays
Method in brief: as §1

foxtail, giant [4] = assay: Test C preemergence; assay type: in vivo, Setaria faberi
Method in brief: as §1

kochia [5] = assay: Test C preemergence; assay type: in vivo, Bassia scoparia
Method in brief: as §1

oat, wild [6] = assay: Test C preemergence; assay type: in vivo, Avena fatua
Method in brief: as §1

pigweed, palmer [7] = assay: Test C preemergence; assay type: in vivo, Amaranthus palmeri
Method in brief: as §1

ragweed [8] = assay: Test C preemergence; assay type: in vivo, Ambrosia artemisiifolia
Method in brief: as §1

ryegrass, Italian [9] = assay: Test C preemergence; assay type: in vivo, Lolium multiflorum
Method in brief: as §1

soybean [10] = assay: Test C preemergence; assay type: in vivo, Glycine max
Method in brief: as §1

wheat [11] = assay: Test C preemergence; assay type: in vivo, Triticum aestivum
Method in brief: as §1

barnyardgrass [12] = assay: Test C postemergence; assay type: in vivo, Echinochloa crusgalli; details: 10 days, 0 to 100 scale (0 no effect, 100 complete control)
Method in brief: as §1

blackgrass [13] = assay: Test C postemergence; assay type: in vivo, Alopecurus myosuroides; details: 10 days, 0 to 100 scale (0 no effect, 100 complete control)
Method in brief: as §1

corn [14] = assay: Test C postemergence; assay type: in vivo, Zea mays; details: 10 days, 0 to 100 scale (0 no effect, 100 complete control)
Method in brief: as §1

foxtail, giant [15] = assay: Test C postemergence; assay type: in vivo, Setaria faberi; details: 10 days, 0 to 100 scale (0 no effect, 100 complete control)
Method in brief: as §1

kochia [16] = assay: Test C postemergence; assay type: in vivo, Bassia scoparia; details: 10 days, 0 to 100 scale (0 no effect, 100 complete control)
Method in brief: as §1

oat, wild [17] = assay: Test C postemergence; assay type: in vivo, Avena fatua; details: 10 days, 0 to 100 scale (0 no effect, 100 complete control)
Method in brief: as §1

pigweed, palmer [18] = assay: Test C postemergence; assay type: in vivo, Amaranthus palmeri; details: 10 days, 0 to 100 scale (0 no effect, 100 complete control)
Method in brief: as §1

ragweed [19] = assay: Test C postemergence; assay type: in vivo, Ambrosia artemisiifolia; details: 10 days, 0 to 100 scale (0 no effect, 100 complete control)
Method in brief: as §1

ryegrass, Italian [20] = assay: Test C postemergence; assay type: in vivo, Lolium multiflorum; details: 10 days, 0 to 100 scale (0 no effect, 100 complete control)
Method in brief: as §1

soybean [21] = assay: Test C postemergence; assay type: in vivo, Glycine max; details: 10 days, 0 to 100 scale (0 no effect, 100 complete control)
Method in brief: as §1

wheat [22] = assay: Test C postemergence; assay type: in vivo, Triticum aestivum; details: 10 days, 0 to 100 scale (0 no effect, 100 complete control)
Method in brief: as §1

galium = assay: Test C postemergence; assay type: in vivo, Galium aparine; details: 10 days, 0 to 100 scale (0 no effect, 100 complete control)
Method in brief: as §1

horseweed = assay: Test C postemergence; assay type: in vivo, Erigeron canadensis; details: 10 days, 0 to 100 scale (0 no effect, 100 complete control)
Method in brief: as §1

barnyardgrass [23] = assay: Test D flooded paddy test; assay type: in vivo, Echinochloa crus-galli; details: 250 g ai/ha, applied to paddy water, visual rating after 13 to 14 days, scale 0 to 100 (0 no effect, 100 complete control)
Method in brief: (§2)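 Visual ratings from 0, meaning no effect, to 100, meaning complete control, were assigned against untreated controls 13 to 14 days after compounds were added to the floodwater of pots kept 3 cm deep, with plants at the 2-leaf stage.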

ducksalad = assay: Test D flooded paddy test; assay type: in vivo, Heteranthera limosa; details: 250 g ai/ha, applied to paddy water, visual rating after 13 to 14 days, scale 0 to 100 (0 no effect, 100 complete control)
Method in brief: as §2

rice = assay: Test D flooded paddy test; assay type: in vivo, Oryza sativa; details: 250 g ai/ha, applied to paddy water, visual rating after 13 to 14 days, scale 0 to 100 (0 no effect, 100 complete control)
Method in brief: as §2

sedge, umbrella = assay: Test D flooded paddy test; assay type: in vivo, Cyperus difformis; details: 250 g ai/ha, applied to paddy water, visual rating after 13 to 14 days, scale 0 to 100 (0 no effect, 100 complete control)
Method in brief: as §2

[24] = 500 g ai/ha, preemergence, 0 to 100 scale (0 no effect, 100 complete control)
[25] = Preemergence, 125 g ai/ha, 0 to 100 scale, 0 no effect, 100 complete control

Q: Which “Barnyardgrass plant response rating” value (barnyardgrass [1]; [24]) does the source give for `CCc1cc(C(=O)N2C[C@H](C)Oc3c(Cl)cccc32)cc(-n2cncn2)c1` [Compound 332] here?
A: The value was 90.

Q: And the “Plant response rating, Barnyardgrass” value (barnyardgrass [1]; [25])?
A: Its value is 50.

Q: And the “Blackgrass plant response rating” value (blackgrass [2]; [24])?
A: The value was 80.

Q: What about the “Plant response rating, Blackgrass” value (blackgrass [2]; [25]) of the same compound?
A: Its value is 80.

Q: What about the “Corn plant response rating” value (corn [3]; [24]) of the same compound?
A: Its value is 20.

Q: And the “Plant response rating, Corn” value (corn [3]; [25])?
A: Its value is 20.

Q: What about the “Foxtail, Giant plant response rating” value (foxtail, giant [4]; [24]) of the same compound?
A: The value was 100.

Q: What about the “Plant response rating, Foxtail, Giant” value (foxtail, giant [4]; [25]) of the same compound?
A: Its value is 70.

Q: What about the “Kochia plant response rating” value (kochia [5]; [24]) of the same compound?
A: The value was 50.

Q: What about the “Plant response rating, Kochia” value (kochia [5]; [25]) of the same compound?
A: Its value is 0.

Q: And the “Oat, Wild plant response rating” value (oat, wild [6]; [24])?
A: Its value is 30.

Q: And the “Plant response rating, Oat, Wild” value (oat, wild [6]; [25])?
A: Its value is 30.

Q: What about the “Pigweed, Palmer plant response rating” value (pigweed, palmer [7]; [24]) of the same compound?
A: Its value is 100.

Q: And the “Plant response rating, Pigweed, Palmer” value (pigweed, palmer [7]; [25])?
A: The value was 20.

Q: What about the “Ragweed plant response rating” value (ragweed [8]; [24]) of the same compound?
A: Its value is 0.

Q: What about the “Plant response rating, Ragweed” value (ragweed [8]; [25]) of the same compound?
A: The value was 0.

Q: And the “Ryegrass, Italian plant response rating” value (ryegrass, Italian [9]; [24])?
A: The value was 90.

Q: What about the “Plant response rating, Ryegrass, Italian” value (ryegrass, Italian [9]; [25]) of the same compound?
A: The value was 60.

Q: And the “Soybean plant response rating” value (soybean [10]; [24])?
A: The value was 0.

Q: And the “Plant response rating, Soybean” value (soybean [10]; [25])?
A: Its value is 0.

Q: And the “Wheat plant response rating” value (wheat [11]; [24])?
A: Its value is 0.

Q: What about the “Plant response rating, Wheat” value (wheat [11]; [25]) of the same compound?
A: The value was 0.

Q: What about the “Plant response rating, Barnyardgrass” value (barnyardgrass [12]; 500 g ai/ha, postemergence) of the same compound?
A: Its value is 70.

Q: And the “Plant response rating, Barnyardgrass” value (barnyardgrass [12]; Postemergence, 125 g ai/ha)?
A: The value was 40.

Q: What about the “Plant response rating, Blackgrass” value (blackgrass [13]; 500 g ai/ha, postemergence) of the same compound?
A: The value was 70.

Q: What about the “Plant response rating, Blackgrass” value (blackgrass [13]; Postemergence, 125 g ai/ha) of the same compound?
A: Its value is 30.

Q: What about the “Plant response rating, Corn” value (corn [14]; 500 g ai/ha, postemergence) of the same compound?
A: Its value is 30.

Q: What about the “Plant response rating, Corn” value (corn [14]; Postemergence, 125 g ai/ha) of the same compound?
A: The value was 30.

Q: What about the “Plant response rating, Foxtail, Giant” value (foxtail, giant [15]; 500 g ai/ha, postemergence) of the same compound?
A: The value was 90.

Q: And the “Plant response rating, Foxtail, Giant” value (foxtail, giant [15]; Postemergence, 125 g ai/ha)?
A: The value was 40.

Q: What about the “Plant response rating, Kochia” value (kochia [16]; 500 g ai/ha, postemergence) of the same compound?
A: The value was 60.

Q: What about the “Plant response rating, Kochia” value (kochia [16]; Postemergence, 125 g ai/ha) of the same compound?
A: The value was 10.

Q: What about the “Plant response rating, Oat, Wild” value (oat, wild [17]; 500 g ai/ha, postemergence) of the same compound?
A: Its value is 30.

Q: And the “Plant response rating, Oat, Wild” value (oat, wild [17]; Postemergence, 125 g ai/ha)?
A: Its value is 10.

Q: And the “Plant response rating, Pigweed, Palmer” value (pigweed, palmer [18]; 500 g ai/ha, postemergence)?
A: The value was 70.

Q: And the “Plant response rating, Pigweed, Palmer” value (pigweed, palmer [18]; Postemergence, 125 g ai/ha)?
A: Its value is 70.

Q: What about the “Plant response rating, Ragweed” value (ragweed [19]; 500 g ai/ha, postemergence) of the same compound?
A: Its value is 20.

Q: What about the “Plant response rating, Ragweed” value (ragweed [19]; Postemergence, 125 g ai/ha) of the same compound?
A: The value was 0.

Q: What about the “Plant response rating, Ryegrass, Italian” value (ryegrass, Italian [20]; 500 g ai/ha, postemergence) of the same compound?
A: Its value is 70.

Q: And the “Plant response rating, Ryegrass, Italian” value (ryegrass, Italian [20]; Postemergence, 125 g ai/ha)?
A: The value was 60.

Q: And the “Plant response rating, Soybean” value (soybean [21]; 500 g ai/ha, postemergence)?
A: Its value is 100.

Q: And the “Plant response rating, Soybean” value (soybean [21]; Postemergence, 125 g ai/ha)?
A: Its value is 90.

Q: What about the “Plant response rating, Wheat” value (wheat [22]; 500 g ai/ha, postemergence) of the same compound?
A: The value was 20.

Q: What about the “Plant response rating, Wheat” value (wheat [22]; Postemergence, 125 g ai/ha) of the same compound?
A: Its value is 20.

Q: What about the “Plant response rating, Galium” value (galium; 500 g ai/ha, postemergence) of the same compound?
A: The value was 100.

Q: What about the “Plant response rating, Galium” value (galium; Postemergence, 125 g ai/ha) of the same compound?
A: The value was 70.

Q: And the “Plant response rating, Horseweed” value (horseweed; 500 g ai/ha, postemergence)?
A: The value was 0.

Q: What about the “Plant response rating, Horseweed” value (horseweed; Postemergence, 125 g ai/ha) of the same compound?
A: The value was 0.

Q: And the “Plant response rating, Barnyardgrass (Flood)” value (barnyardgrass [23])?
A: The value was 0.

Q: What about the “Plant response rating, Ducksalad (Flood)” value (ducksalad) of the same compound?
A: Its value is 0.

Q: And the “Plant response rating, Rice (Flood)” value (rice)?
A: Its value is 0.

Q: What about the “Plant response rating, Sedge, Umbrella (Flood)” value (sedge, umbrella) of the same compound?
A: Its value is 0.
